Measurements taken from PubChem BioAssay (NCI).
Values joined by “and” are separate entries in the source; they are usually repeats but may differ in a detail not shown here. Equal entries are not always repeated.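 Step 1: Grow cells in 96-well plates. Step 2: Expose to compound for 48 hours at 5 concentrations. Step 3: Interpolate endpoints linearly; if unreached, use highest concentration. TGI is the concentration that stops growth completely.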

Legend:
Assay in all cases: NCI tumour cell line growth inhibition, 48 h
[1] = system: MOLT-4 leukemia
[2] = system: NCI-H460 lung
[3] = system: SK-MEL-5 melanoma
[4] = system: SR leukemia
[5] = system: MDA-MB-231 breast
[6] = system: DLD-1 colon
[7] = system: DMS 114 small cell lung
[8] = system: DMS 273 small cell lung
[9] = system: HOP-18 NSCLC
[10] = system: KM20L2 colon
[11] = system: M19-MEL melanoma
[12] = system: P388 leukemia
[13] = system: P388/ADR leukemia
[14] = system: SN12K1 renal
[15] = system: SNB-78 CNS
[16] = system: XF 498 CNS
[17] = system: RXF-631 renal
[18] = system: LXFL 529 NSCLC

SMILES: COc1cc2cc(C(=O)N3CC(CCl)c4ccc(NO)cc43)[nH]c2c(OC)c1OC (centres undefined)
- TGI [1]: 0.61 µM
- TGI [2]: > 37.7 µM
- TGI [3]: 0.342 µM
- TGI [4]: > 100 µM

SMILES: CC(C)CC(N)C(=O)NC(CNC(CCC(N)=O)C(=O)NC(CC(C)C)C(=O)NC(CC(C)C)C(=O)O)Cc1ccc2ccccc2c1 (centres undefined)
- TGI [5]: > 10 µM
- TGI [1]: > 10 µM
- TGI [2]: > 10 µM
- TGI [3]: > 10 µM
- TGI [4]: > 10 µM

SMILES: CC1CC(C)(O)C2C3(C)CCCC2(COC3=O)C12CCC1(CCOC1=O)O2 (centres undefined)
- TGI [6]: > 250 µM
- TGI [7]: > 250 µM
- TGI [8]: > 250 µM
- TGI [9]: > 250 µM
- TGI [10]: > 250 µM
- TGI [11]: > 250 µM
- TGI [1]: > 250 µM
- TGI [2]: > 250 µM
- TGI [12]: > 250 µM
- TGI [13]: > 116 µM
- TGI [3]: > 250 µM
- TGI [14]: > 250 µM
- TGI [15]: > 250 µM
- TGI [16]: > 39.6 µM

SMILES: O=C(O)C1=C(CO)Oc2cc3c(cc2C1c1ccc2c(c1)OCO2)OCO3 (centres undefined)
- TGI [6]: > 100 µM
- TGI [7]: > 100 µM
- TGI [8]: > 100 µM
- TGI [9]: > 100 µM
- TGI [10]: > 100 µM
- TGI [11]: > 100 µM
- TGI [1]: > 100 µM
- TGI [2]: > 100 µM
- TGI [17]: > 100 µM
- TGI [3]: > 100 µM
- TGI [15]: > 100 µM
- TGI [16]: > 100 µM

SMILES: Nc1[nH]c(=O)nc2c1cnn2COCCO
- TGI [6]: > 100 µM
- TGI [7]: > 100 µM
- TGI [8]: > 100 µM
- TGI [9]: > 100 µM
- TGI [10]: 6.85 µM
- TGI [18]: > 100 µM
- TGI [1]: > 100 µM
- TGI [2]: > 100 µM
- TGI [3]: > 100 µM
- TGI [15]: > 100 µM
- TGI [4]: > 100 µM
- TGI [16]: > 100 µM

SMILES: O=P1(Oc2ccc(Cl)cc2Cl)Oc2cc3ccccc3cc2O1
- TGI [6]: > 100 µM
- TGI [7]: > 89.3 µM
- TGI [8]: > 100 µM
- TGI [9]: > 100 µM
- TGI [10]: > 100 µM
- TGI [1]: > 71.4 µM
- TGI [2]: > 100 µM
- TGI [12]: 32.6 µM
- TGI [13]: 64.1 µM
- TGI [3]: > 100 µM
- TGI [14]: > 100 µM
- TGI [15]: > 100 µM
- TGI [16]: > 100 µM

SMILES: CN(C)CCC(=O)[C@@]1(O)CC[C@H]2[C@@H]3CC=C4C[C@@H](O)CC[C@]4(C)[C@H]3CC[C@@]21C
- TGI [5]: 32.8 µM
- TGI [1]: 53.1 µM
- TGI [2]: 30.9 µM
- TGI [3]: > 81.8 µM
- TGI [4]: 39.4 µM

SMILES: Nc1c(S(=O)(=O)O)cc(S(=O)(=O)O)c2ccc(N=Nc3ccccc3)c(O)c12
- TGI [5]: > 100 µM
- TGI [2]: > 100 µM
- TGI [3]: > 100 µM
- TGI [4]: > 100 µM

SMILES: CCn1c2ccccc2c2ccc(C3C4C(=O)N(c5cccc6ccccc56)C(=O)C4ON3C(C(N)=O)c3ccccc3)cc21 (centres undefined)
- TGI [5]: > 25 µM
- TGI [1]: > 25 µM
- TGI [2]: > 25 µM
- TGI [3]: > 25 µM
- TGI [4]: > 25 µM

SMILES: COC(=O)[C@]12CC[C@H]3CN(S(=O)(=O)c4ccc(C)cc4)[C@H]([C@H]31)[C@H](c1ccco1)N2S(=O)(=O)c1ccc(C)cc1
- TGI [5]: > 100 µM
- TGI [1]: > 100 µM
- TGI [2]: > 100 µM
- TGI [3]: > 100 µM
- TGI [4]: > 100 µM

SMILES: Cc1nn(CNc2ccc(F)c(Cl)c2)c(=S)n1/N=C/c1ccc(-c2ccc(Cl)cc2Cl)o1
- TGI [5]: 34.9 µM
- TGI [1]: 6.59 µM
- TGI [2]: 33.7 µM
- TGI [3]: 35.1 µM
- TGI [4]: 14.7 µM

SMILES: CC(C)N(CC(=O)O)CC(=O)O
- TGI [5]: > 100 µM
- TGI [1]: > 100 µM
- TGI [2]: > 100 µM
- TGI [3]: > 100 µM
- TGI [4]: > 100 µM

SMILES: COc1ccc2c(O)c1-c1c(OC)ccc(c1O)SSc1ccc(OC)c(c1O)-c1c(OC)ccc(c1O)SS2
- TGI [5]: > 100 µM
- TGI [1]: > 100 µM
- TGI [3]: > 100 µM
- TGI [4]: 21.5 µM

SMILES: CCCCCCCCCCCCCCCCCCN(C)CC(COC)OP(=O)([O-])OCC[N+](C)(C)C (centres undefined)
- TGI [6]: 12.8 µM
- TGI [7]: 9.75 µM
- TGI [8]: 2.45 µM
- TGI [9]: 9.91 µM
- TGI [10]: 5.94 µM
- TGI [18]: 7.98 µM
- TGI [11]: 10.1 µM
- TGI [1]: 11 µM
- TGI [2]: 2.35 µM
- TGI [17]: 22 µM
- TGI [3]: 23.7 µM
- TGI [15]: 13.4 µM
- TGI [4]: 8.55 µM
- TGI [16]: 16.8 µM

SMILES: [O-]c1c2c(nn1-c1ccc(F)cc1)c1ccccc1c[n+]2Cc1ccccc1
- TGI [6]: 43.7 µM
- TGI [7]: 32.9 µM
- TGI [10]: 25.9 µM
- TGI [18]: 18.8 µM
- TGI [1]: 81.5 µM
- TGI [2]: 29.7 µM
- TGI [3]: 13.4 µM
- TGI [15]: 35.4 µM
- TGI [4]: 41.9 µM
- TGI [16]: 45.2 µM

SMILES: CC(C)=CCC/C(C)=C/Cc1c2c(c3oc(-c4ccc(O)c(O)c4)c(O)c(=O)c3c1O)C=CC(C)(C)O2
- TGI [5]: 14.5 µM
- TGI [1]: 8.98 µM
- TGI [2]: 10.9 µM
- TGI [3]: 9.86 µM
- TGI [4]: 6.94 µM

SMILES: Cc1ccc(C(=O)NC2C(=O)NC(C(C)C)C(=O)N3CCCC3C(=O)N(C)CC(=O)N(C)C(C(C)C)C(=O)OC2C)c2c1Oc1c(c(C(=O)NC3C(=O)NC(C(C)C)C(=O)N4CCCC4C(=O)N(C)CC(=O)N(C)C(C(C)C)C(=O)OC3C)c3nc(-c4ccccc4)c(=O)oc3c1C)N2 (centres undefined)
- TGI [5]: 0.221 µM and 0.129 µM
- TGI [1]: 0.0314 µM
- TGI [3]: 0.0149 µM

SMILES: O=C(c1ccccc1)c1ccc(N2C(=O)/C(=C/c3ccccc3S)N=C2c2ccccc2)c(N2C(=O)/C(=C/c3ccccc3S)N=C2c2ccccc2)c1
- TGI [5]: > 100 µM
- TGI [1]: 56.6 µM
- TGI [2]: > 100 µM
- TGI [3]: 87.6 µM
- TGI [4]: > 100 µM

SMILES: Cc1csc2nc(-c3cc([N+](=O)[O-])c(Cl)cc3Cl)c(/C=N/N=C(N)N)n12
- TGI [5]: 28 µM
- TGI [1]: 18.8 µM
- TGI [2]: 45.7 µM
- TGI [3]: 30.9 µM
- TGI [4]: 4.84 µM

SMILES: CCCCC(CC)C(=O)Oc1ccc(C(=O)c2ccccc2)c(O)c1 (centres undefined)
- TGI [5]: > 100 µM
- TGI [1]: > 100 µM
- TGI [2]: > 100 µM
- TGI [3]: > 100 µM

SMILES: CC(=O)NC1C(OCc2ccccc2)OC(CO)C(O)C1OCC(=O)NC(C(=O)NC(CCC(=O)NCCCCCC(=O)Nc1ccc2c(c1)CN1C(=O)c3ccccc3C1=N2)C(N)=O)C(C)C (centres undefined)
- TGI [5]: 63.3 µM
- TGI [1]: > 100 µM
- TGI [2]: 51.2 µM
- TGI [3]: 49.6 µM
- TGI [4]: > 100 µM

SMILES: CCCCCCC(=O)OC[n+]1ccc(-c2c(COC(=O)NC(C)C)c(COC(=O)NC(C)C)c3n2CCC3)cc1
- TGI [5]: > 100 µM
- TGI [1]: > 94.3 µM
- TGI [2]: > 100 µM
- TGI [3]: > 100 µM
- TGI [4]: 50.9 µM
